Data as given in patent US6924283B2, “4-thioxo-4,7-dihydro-thieno[2,3-b]pyridine-5-carbothioamides as antiviral agents” (Pfizer, priority 2001, dated 2005).

Assays:
Assay type in all cases: biochemical
HCMV polymerase = target: T1, HCMV polymerase (Human cytomegalovirus, UniProt P08546); test: HCMV polymerase scintillation proximity assay (modified version); conditions: modified SPA assay, compounds diluted in 100% DMSO, 4.5 mM DTT
T1 construct: made in house; host or cells: recombinant baculovirus-infected SF-9 cells
T1 sequence (P08546 whole entry): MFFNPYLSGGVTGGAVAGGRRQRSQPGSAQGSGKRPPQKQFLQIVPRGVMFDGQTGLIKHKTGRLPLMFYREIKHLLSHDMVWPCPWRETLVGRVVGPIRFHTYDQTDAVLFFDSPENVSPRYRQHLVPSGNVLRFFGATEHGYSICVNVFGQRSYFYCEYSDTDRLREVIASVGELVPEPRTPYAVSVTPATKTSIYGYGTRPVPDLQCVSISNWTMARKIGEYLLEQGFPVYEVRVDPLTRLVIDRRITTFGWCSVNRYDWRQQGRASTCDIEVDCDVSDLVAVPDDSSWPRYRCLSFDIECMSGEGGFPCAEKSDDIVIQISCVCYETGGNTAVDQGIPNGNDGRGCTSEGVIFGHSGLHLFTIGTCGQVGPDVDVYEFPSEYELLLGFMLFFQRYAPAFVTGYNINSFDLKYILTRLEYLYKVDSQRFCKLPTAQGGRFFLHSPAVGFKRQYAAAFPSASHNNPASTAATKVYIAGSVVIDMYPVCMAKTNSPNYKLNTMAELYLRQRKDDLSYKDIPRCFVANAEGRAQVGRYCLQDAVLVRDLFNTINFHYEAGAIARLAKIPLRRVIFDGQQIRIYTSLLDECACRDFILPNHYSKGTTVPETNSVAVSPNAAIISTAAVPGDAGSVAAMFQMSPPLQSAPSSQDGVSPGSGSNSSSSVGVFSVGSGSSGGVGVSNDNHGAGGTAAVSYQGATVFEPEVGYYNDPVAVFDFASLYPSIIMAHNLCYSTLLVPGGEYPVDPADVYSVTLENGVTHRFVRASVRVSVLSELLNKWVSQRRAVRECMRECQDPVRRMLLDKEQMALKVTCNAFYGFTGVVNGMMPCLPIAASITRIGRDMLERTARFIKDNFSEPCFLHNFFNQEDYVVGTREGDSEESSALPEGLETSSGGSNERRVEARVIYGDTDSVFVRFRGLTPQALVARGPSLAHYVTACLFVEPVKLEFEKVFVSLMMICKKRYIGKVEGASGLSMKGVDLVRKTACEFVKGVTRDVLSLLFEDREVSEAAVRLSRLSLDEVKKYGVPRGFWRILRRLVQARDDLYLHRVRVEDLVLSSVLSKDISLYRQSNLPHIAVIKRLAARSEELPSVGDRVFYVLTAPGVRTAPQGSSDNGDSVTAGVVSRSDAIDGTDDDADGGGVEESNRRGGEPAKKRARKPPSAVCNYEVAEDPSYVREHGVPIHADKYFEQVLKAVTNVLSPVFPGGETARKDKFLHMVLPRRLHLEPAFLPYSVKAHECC
Procedure: The HCMV polymerase assay is performed using a scintillation proximity assay (SPA) as described in several references, such as N. D. Cook, et al., Pharmaceutical Manufacturing International, pages 49-53 (1992); K. Takeuchi, Laboratory Practice, September issue (1992); U.S. Pat. No. 4,568,649 (1986); which are incorporated by reference herein. Reactions are performed in 96-well plates. The assay is conducted in 100 μl volume with 5.4 mM HEPES (pH 7.5), 11.7 mM KCl, 4.5 mM MgCl2, 0.36 mg/ml BSA, and 90 nM ^3H-dTTP. Assays are run with and without CHAPS, (3-[(3-cholamidopropyl)-dimethylammonio]-1-propane-sulfonate) at a final concentration of 2 mM. HCMV polymerase is diluted in enzyme dilution buffer containing 50% glycerol, 250 mM NaCl, 10 mM HEPES (pH 7.5), 100 μg/ml BSA, and 0.01% sodium azide. […] Plates are incubated 10 min. at 37° C., then equilibrated to room temperature, and counted on a Packard Topcount. Linear regressions are performed and IC50's are calculated using computer software.
A modified version of the above HCMV polymerase assay is performed as described above, but with the following changes: Compounds are diluted in 100% DMSO until final dilution into assay buffer. […] In Table 1, the term “nd” refers to activity data not determined.

HSV polymerase = HSV polymerase (Human herpesvirus 1, UniProt P04293); test: HSV polymerase assay (Table 1)
HSV polymerase, sequence (P04293 whole entry): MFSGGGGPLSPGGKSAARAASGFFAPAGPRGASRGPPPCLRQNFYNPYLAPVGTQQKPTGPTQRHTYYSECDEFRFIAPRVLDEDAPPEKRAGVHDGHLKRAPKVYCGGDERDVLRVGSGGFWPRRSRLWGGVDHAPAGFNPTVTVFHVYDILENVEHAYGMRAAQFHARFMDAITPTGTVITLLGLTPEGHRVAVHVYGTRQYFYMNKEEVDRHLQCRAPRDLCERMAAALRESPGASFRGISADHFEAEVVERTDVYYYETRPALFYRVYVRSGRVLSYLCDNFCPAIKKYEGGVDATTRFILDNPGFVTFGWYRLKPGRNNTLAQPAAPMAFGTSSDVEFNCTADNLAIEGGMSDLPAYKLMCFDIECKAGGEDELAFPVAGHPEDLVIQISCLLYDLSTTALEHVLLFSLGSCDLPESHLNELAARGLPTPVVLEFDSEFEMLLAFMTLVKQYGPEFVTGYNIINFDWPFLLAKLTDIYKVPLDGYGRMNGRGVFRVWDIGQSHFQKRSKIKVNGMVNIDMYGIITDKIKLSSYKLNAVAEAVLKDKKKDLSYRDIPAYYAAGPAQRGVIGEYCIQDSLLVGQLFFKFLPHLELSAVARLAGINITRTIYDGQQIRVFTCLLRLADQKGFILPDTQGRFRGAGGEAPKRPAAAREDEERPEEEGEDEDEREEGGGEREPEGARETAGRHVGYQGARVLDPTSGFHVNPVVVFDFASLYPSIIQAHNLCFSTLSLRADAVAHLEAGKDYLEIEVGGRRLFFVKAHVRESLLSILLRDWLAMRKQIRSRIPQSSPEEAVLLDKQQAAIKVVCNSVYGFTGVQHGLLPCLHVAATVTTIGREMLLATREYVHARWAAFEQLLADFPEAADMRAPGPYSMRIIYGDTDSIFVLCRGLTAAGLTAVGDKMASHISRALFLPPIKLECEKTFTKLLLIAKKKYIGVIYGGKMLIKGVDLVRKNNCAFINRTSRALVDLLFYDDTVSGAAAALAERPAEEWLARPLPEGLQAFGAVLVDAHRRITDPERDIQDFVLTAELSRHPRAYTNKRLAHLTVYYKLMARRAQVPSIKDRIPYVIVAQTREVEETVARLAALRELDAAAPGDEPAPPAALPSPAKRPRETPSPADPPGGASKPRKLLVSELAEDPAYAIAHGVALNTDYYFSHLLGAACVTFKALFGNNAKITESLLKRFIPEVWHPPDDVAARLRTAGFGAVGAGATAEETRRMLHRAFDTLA

VZV polymerase = VZV polymerase (Varicella-zoster virus, UniProt P09252); test: VZV polymerase assay (Table 1)
VZV polymerase, sequence (P09252 whole entry): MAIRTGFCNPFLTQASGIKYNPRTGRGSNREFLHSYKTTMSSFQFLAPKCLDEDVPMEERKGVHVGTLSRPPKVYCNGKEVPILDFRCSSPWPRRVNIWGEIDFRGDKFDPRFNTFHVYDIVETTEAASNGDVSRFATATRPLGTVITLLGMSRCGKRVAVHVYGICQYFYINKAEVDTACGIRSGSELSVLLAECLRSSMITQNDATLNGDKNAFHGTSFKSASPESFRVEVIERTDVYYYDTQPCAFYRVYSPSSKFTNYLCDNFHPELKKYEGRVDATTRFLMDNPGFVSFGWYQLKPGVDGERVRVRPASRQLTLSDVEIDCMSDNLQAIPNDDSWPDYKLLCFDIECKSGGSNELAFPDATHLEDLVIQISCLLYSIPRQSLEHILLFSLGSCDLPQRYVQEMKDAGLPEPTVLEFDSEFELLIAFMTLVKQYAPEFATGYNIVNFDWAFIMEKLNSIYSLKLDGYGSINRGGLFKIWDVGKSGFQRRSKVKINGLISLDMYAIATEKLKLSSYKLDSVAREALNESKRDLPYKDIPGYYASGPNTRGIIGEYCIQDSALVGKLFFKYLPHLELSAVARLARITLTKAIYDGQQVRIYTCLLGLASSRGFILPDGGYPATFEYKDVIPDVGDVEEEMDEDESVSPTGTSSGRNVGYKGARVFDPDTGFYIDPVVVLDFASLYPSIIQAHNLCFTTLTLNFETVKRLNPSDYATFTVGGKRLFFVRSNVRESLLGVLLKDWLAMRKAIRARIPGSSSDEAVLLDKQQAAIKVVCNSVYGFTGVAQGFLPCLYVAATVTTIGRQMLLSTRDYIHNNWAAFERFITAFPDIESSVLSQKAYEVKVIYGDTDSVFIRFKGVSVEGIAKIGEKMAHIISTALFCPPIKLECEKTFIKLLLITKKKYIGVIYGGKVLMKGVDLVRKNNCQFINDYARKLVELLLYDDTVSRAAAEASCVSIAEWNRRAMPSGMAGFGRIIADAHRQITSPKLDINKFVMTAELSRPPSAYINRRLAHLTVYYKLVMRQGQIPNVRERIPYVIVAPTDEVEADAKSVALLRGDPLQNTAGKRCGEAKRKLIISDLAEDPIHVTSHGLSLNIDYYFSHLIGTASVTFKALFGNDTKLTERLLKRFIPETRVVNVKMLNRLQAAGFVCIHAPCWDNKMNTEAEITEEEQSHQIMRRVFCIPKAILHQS

IC50 (HCMV polymerase): 910 nM
IC50 (HSV polymerase): 360 nM
IC50 (VZV polymerase): 130 nM
SMILES: Cn1cc(C(=S)NCc2ccc(Cl)cc2)c(=S)c2cc(CN3CCOCC3)sc21 [Example 1, N-(4-Chlorobenzyl)-7-methyl-2-(4-morpholinylmethyl)-4-thioxo-4,7-dihydrothieno[2,3-b]pyridine-5-carbothioamide]
